Molecular target: T1, SHP2 (Homo sapiens, UniProt Q06124)
T1 construct: endogenous in cells; host or cells: MV411 (MV4-11) leukemia cells
T1 sequence (Q06124 1-593): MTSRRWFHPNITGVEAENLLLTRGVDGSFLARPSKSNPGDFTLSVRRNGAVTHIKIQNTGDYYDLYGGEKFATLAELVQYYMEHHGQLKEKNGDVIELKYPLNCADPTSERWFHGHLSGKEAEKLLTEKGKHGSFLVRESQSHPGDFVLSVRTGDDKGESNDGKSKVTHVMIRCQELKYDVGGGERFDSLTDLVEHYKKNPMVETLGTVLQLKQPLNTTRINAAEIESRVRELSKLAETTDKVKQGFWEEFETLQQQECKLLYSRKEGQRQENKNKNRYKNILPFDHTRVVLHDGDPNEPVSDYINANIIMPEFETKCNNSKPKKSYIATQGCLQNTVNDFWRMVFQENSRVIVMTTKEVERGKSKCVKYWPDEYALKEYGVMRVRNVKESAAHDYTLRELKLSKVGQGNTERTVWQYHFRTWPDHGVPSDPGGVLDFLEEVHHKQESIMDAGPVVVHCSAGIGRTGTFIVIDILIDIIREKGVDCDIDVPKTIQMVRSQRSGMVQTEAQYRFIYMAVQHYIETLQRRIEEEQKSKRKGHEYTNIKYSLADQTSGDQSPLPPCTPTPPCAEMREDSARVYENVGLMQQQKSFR
Experiment: SHP2 degradation in MV411 cells (Western blot, SHP-2 antibody)
Format: cell-based
Conditions: MV 411 cells, 24 hours with compound, SHP2 protein level by Western blot
Excerpt: Reagent: complete DMEM medium, Gibco products. Fetal bovine serum, manufactured by ThermoFisher. Trypsin, manufactured by ThermoFisher. The SHP-2 antibody is produced by CST.
Cell line, MV 411, the blast cells of patients with bi-phenotypic B-myelomonocytic leukemia, was established by Rovera.
Measuring method: took the cells growing in the logarithmic phase, collected and suspended the cells in DMEM containing 10% fetal calf serum, gently blowed and beated the cells into single cell suspension by using a pipette, and counted the living cells under a microscope. […] Then cultured for 24 hours. All cells were collected and washed with PBS, lysed with RIPA lysate and collected into a 1.7 ml tube. […] metal bath for 5 minutes to fully denature the protein. 100V constant voltage electrophoresis after Western condensation and loading, stopped when bromophenol blue band reached the end point. The cellulose acetate membrane is transferred by a wet method, 45 minutes at a constant flow of 300-500 mA, 5% BSA is used for blocking for 1-2 hours at room temperature. Primary antibody of 1:500-1:8000 were used for incubation at 25° C. for 40 minutes and then washed three times. Secondary antibody was used for incubation for 15-40 min at room temperature. The proteins were detected using ultrasensitive ECL luminophores such as Enlight, using an X-Ray film automatic developing machine. See the statistical tables below, and FIGS. 1 and 2 for test results.
Effective Concentration of the Compound of the Invention in the Cell Line for Inhibiting SHP2

Q: How did the DC50 turn out when `CCOc1cc(O)c(C(=O)/C=C/c2ccc(NCCOCCOCCOCCNc3cccc4c3C(=O)N(C3CCC(=O)NC3=O)C4=O)cc2Cl)cc1CN1CCC[C@H]1C(N)=O` (stereo partly shown) [TDC.2001] was run?
A: 128 nM

Q: How did the DC50 turn out when `CCOc1cc(O)c(C(=O)/C=C/c2ccc(NCCOCCOCCNc3cccc4c3C(=O)N(C3CCC(=O)NC3=O)C4=O)cc2Cl)cc1CN1CCNCC1` (stereo not shown) [TDC.2002] was run?
A: 336 nM

Q: Which DC50 does the source give for `CCOc1cc(O)c(C/C=C/c2ccc(N3CCN(C(=O)CCCCCCC(=O)Nc4cccc5c4C(=O)N(C4CCC(=O)NC4=O)C5=O)CC3)cc2Cl)cc1CN1CCC=C(n2c(=O)[nH]c3ccccc32)C1` (stereo not shown) [TDC.2003] here?
A: 52 nM

Q: For `CCOc1cc(O)c(C/C=C/c2ccc(N3CCN(C(=O)CCCCCC(=O)Nc4cccc5c4C(=O)N(C4CCC(=O)NC4=O)C5=O)CC3)cc2Cl)cc1CN1CCCC(n2c(=O)[nH]c3ccccc32)C1` (stereo not shown) [TDC.2004], which DC50 is on record?
A: 120 nM

Q: How did the DC50 turn out when `CCOc1cc(O)c(C(=O)/C=C/c2ccc(NCCOCCOCCNc3cccc4c3C(=O)N(C3CCC(=O)NC3=O)C4=O)cc2Cl)cc1CN1CCN(C)CC1` (stereo not shown) [TDC.2005] was run?
A: 321 nM

Q: With `CCOc1cc(O)c(C(=O)/C=C/c2ccc(NCCOCCOCCNc3cccc4c3C(=O)N(C3CCC(=O)NC3=O)C4=O)cc2Cl)cc1CN1CCOCC1` (stereo not shown) [TDC.2006] as the molecule, how does the DC50 read?
A: 445 nM

Q: How did the DC50 turn out when `CCOc1cc(O)c(C(=O)/C=C/c2ccc(NCCOCCOCCNc3cccc4c3C(=O)N(C3CCC(=O)NC3=O)C4=O)cc2Cl)cc1CN1CCC[C@H]1CO` (stereo partly shown) [TDC.2007] was run?
A: 125 nM

Q: For `CCOc1cc(O)c(C(=O)/C=C/c2ccc(NCCOCCOCCNc3cccc4c3C(=O)N(C3CCC(=O)NC3=O)C4=O)cc2Cl)cc1CN1CCC[C@H]1COC` (stereo partly shown) [TDC.2008], which DC50 is on record?
A: 215 nM

Q: For `CCOc1cc(O)c(C(=O)/C=C/c2ccc(N3CCN(CCOCCOCCOc4cccc5c4C(=O)N(C4CCC(=O)NC4=O)C5=O)CC3)cc2Cl)cc1CN1CCCC(n2c(=O)[nH]c3ccccc32)C1` (stereo not shown) [TDC.2009], which DC50 is on record?
A: 16 nM

Q: `CCOc1cc(O)c(C(=O)/C=C/c2ccc(N3CCN(CCOCCOCCOc4cccc5c4C(=O)N(C4CCC(=O)NC4=O)C5=O)CC3)cc2Cl)cc1CN1CCC=C(n2c(=O)[nH]c3ccccc32)C1` (stereo not shown) [TDC.2010] was tested. Which DC50 did it give?
A: 81 nM

Q: `CCOc1cc(O)c(C(=O)/C=C/c2ccc(N3CCN(CCOCCOCCOc4cccc5c4C(=O)N(C4CCC(=O)NC4=O)C5=O)CC3)cc2Cl)cc1CN1CCC[C@H]1C(N)=O` (stereo partly shown) [TDC.2011] was tested. Which DC50 did it give?
A: 138 nM

Q: With `CCOc1cc(O)c(C(=O)/C=C/c2ccc(N3CCN(CCOCCOCCOc4cccc5c4C(=O)N(C4CCC(=O)NC4=O)C5=O)CC3)cc2Cl)cc1CN1CCC[C@@H]1CO` (stereo partly shown) [TDC.2012] as the molecule, how does the DC50 read?
A: 10 nM

Q: For `C=C/C(OCCOCCOCCN1CCN(c2ccc(/C=C/C(=O)c3cc(CN4CCC[C@H]4COC)c(OCC)cc3O)c(Cl)c2)CC1)=C1\C(=C)C(=O)N(C2CCC(=O)NC2=O)C1=O` (stereo partly shown) [TDC.2013], which DC50 is on record?
A: 203 nM

Q: Which DC50 does the source give for `CCOc1cc(O)c(C(=O)/C=C/c2ccc(N3CCN(CCOCCOCCOCCNc4cccc5c4C(=O)N(C4CCC(=O)NC4=O)C5=O)CC3)cc2Cl)cc1CN1CCCC(n2c(=O)[nH]c3ccccc32)C1` (stereo not shown) [TDC.2014] here?
A: 102 nM

Q: With `CCOc1cc(O)c(C(=O)/C=C/c2ccc(NCCOCCOCCCOCCNc3cccc4c3C(=O)N(C3CCC(=O)NC3=O)C4=O)cc2Cl)cc1CN1CCC=C(n2c(=O)[nH]c3ccccc32)C1` (stereo not shown) [TDC.2015] as the molecule, how does the DC50 read?
A: 97 nM

Q: With `CCOc1cc(O)c(C(=O)/C=C/c2ccc(NCCOCCOCCNc3cccc4c3C(=O)N(C3CCC(=O)N(C(C)OC(=O)CC)C3=O)C4=O)cc2Cl)cc1CN1CCN(C)CC1` (stereo not shown) [TDC.2016] as the molecule, how does the DC50 read?
A: 356 nM

Q: With `CCOc1cc(O)c(C(=O)/C=C/c2ccc(NCCOCCOCCOc3cccc4c3C(=O)N(C3CCC(=O)NC3=O)C4=O)cc2Cl)cc1CN1CCC[C@H]1COC` (stereo partly shown) [TDC.2017] as the molecule, how does the DC50 read?
A: 183 nM

Q: How did the DC50 turn out when `CCOc1cc(O)c(C(=O)/C=C/c2ccc(NCCOCCOCCOCCOc3cccc4c3C(=O)N(C3CCC(=O)NC3=O)C4=O)cc2Cl)cc1CN1CCC[C@H]1C(N)=O` (stereo partly shown) [TDC.2018] was run?
A: 142 nM

Q: For `CCOc1cc(O)c(C(=O)/C=C/c2ccc(N3CCN(CCOCCOCCOc4cccc5c4C(=O)N(C4CCC(=O)N(COC(=O)C(C)(C)C)C4=O)C5=O)CC3)cc2Cl)cc1CN1CCCC(n2c(=O)[nH]c3ccccc32)C1` (stereo not shown) [TDC. 2020], which DC50 is on record?
A: 13 nM

From patent US20240316207A1, “SHP2 INHIBITOR, PHARMACEUTICAL COMPOSITION COMPRISING SAME AND APPLICATION THEREOF” (BEIJING TIDE PHARMACEUTICAQL CO., LTD., priority 2021, published 2024)
